{"source": "patent US10590129B2", "about": "(Incozen Therapeutics Pvt. Ltd., priority 2010, dated 2020)", "origin": "cited, not measured here", "key": {"c-Met": {"molecular_target": "c-Met (Homo sapiens, UniProt P08581)", "sequence (P08581 25-1390)": "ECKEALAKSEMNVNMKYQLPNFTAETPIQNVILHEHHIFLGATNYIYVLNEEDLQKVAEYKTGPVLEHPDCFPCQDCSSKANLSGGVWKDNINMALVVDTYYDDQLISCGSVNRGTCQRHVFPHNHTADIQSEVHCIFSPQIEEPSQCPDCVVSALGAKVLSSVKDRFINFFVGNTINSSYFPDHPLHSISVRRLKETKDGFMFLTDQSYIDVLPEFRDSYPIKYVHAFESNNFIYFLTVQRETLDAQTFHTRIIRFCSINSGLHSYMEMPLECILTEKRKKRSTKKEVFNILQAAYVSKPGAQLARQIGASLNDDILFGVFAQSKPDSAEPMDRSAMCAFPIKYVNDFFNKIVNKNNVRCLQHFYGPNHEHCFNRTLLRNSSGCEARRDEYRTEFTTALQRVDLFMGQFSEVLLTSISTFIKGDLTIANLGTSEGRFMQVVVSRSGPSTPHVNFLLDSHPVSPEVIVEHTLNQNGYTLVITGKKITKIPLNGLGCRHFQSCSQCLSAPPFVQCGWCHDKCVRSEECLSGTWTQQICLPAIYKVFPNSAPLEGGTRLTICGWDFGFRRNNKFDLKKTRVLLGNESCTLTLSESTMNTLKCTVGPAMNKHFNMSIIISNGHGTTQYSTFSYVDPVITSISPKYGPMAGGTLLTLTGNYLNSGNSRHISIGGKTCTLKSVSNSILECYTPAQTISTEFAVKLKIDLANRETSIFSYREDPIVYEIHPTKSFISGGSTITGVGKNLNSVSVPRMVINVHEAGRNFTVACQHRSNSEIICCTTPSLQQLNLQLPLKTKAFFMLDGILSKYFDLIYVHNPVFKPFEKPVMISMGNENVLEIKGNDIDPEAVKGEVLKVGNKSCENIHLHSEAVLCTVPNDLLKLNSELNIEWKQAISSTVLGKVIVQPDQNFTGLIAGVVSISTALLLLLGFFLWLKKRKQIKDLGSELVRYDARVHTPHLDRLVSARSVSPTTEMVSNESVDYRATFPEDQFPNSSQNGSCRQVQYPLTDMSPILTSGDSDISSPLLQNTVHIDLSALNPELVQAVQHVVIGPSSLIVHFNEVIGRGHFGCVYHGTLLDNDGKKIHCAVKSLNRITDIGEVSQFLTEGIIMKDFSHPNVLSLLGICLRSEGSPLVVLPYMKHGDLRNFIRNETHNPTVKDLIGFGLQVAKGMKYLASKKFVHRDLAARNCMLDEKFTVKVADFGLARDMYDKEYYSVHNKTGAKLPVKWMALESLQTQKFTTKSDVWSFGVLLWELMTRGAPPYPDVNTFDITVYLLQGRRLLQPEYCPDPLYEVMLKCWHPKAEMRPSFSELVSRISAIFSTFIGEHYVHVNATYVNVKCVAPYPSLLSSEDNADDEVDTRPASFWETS", "conditions": "cited from earlier work"}, "RON": {"molecular_target": "RON (Homo sapiens, UniProt Q04912)", "sequence (Q04912 25-1400, species assumed)": "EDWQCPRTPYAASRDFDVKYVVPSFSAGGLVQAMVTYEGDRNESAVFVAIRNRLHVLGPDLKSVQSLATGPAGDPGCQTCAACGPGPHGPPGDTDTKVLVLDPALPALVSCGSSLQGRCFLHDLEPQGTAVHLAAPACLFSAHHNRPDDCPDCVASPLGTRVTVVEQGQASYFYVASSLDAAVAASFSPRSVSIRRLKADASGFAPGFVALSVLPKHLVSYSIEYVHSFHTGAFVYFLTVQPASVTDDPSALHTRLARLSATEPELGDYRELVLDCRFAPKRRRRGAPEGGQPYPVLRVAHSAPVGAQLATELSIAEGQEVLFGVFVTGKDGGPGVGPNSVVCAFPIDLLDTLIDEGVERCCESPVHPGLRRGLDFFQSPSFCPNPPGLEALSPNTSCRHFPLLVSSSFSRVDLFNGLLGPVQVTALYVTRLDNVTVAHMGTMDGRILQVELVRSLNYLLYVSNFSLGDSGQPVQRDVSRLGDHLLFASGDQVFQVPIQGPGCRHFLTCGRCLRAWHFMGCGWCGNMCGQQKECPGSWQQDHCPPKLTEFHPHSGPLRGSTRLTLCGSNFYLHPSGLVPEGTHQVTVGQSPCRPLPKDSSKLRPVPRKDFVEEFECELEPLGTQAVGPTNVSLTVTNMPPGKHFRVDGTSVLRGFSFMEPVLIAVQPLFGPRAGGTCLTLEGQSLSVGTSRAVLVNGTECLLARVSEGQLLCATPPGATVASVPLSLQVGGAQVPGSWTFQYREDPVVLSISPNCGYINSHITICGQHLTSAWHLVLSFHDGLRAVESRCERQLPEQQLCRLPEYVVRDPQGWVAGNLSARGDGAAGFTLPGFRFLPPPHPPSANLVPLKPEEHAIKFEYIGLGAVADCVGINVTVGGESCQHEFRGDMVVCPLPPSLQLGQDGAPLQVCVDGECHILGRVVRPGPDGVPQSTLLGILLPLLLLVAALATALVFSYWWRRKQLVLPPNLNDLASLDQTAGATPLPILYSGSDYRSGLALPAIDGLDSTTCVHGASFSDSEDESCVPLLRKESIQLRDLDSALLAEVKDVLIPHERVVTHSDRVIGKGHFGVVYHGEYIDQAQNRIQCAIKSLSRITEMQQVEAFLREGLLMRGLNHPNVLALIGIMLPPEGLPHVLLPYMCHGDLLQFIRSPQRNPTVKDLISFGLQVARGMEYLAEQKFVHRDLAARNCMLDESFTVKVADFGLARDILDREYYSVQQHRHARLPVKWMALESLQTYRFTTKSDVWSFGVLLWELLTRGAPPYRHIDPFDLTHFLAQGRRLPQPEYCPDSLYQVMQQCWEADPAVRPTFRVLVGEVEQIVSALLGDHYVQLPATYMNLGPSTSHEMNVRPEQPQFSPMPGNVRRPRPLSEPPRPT", "conditions": "cited from earlier work"}}, "data": [{"smiles": "COc1ccc2c(Oc3ccc(NC(=O)c4c(C)n(CC(C)(C)O)n(-c5ccccc5)c4=O)nc3)ccnc2c1", "note": "[AMG-458]", "values": [{"measurement": "IC50", "setting": "c-Met", "result": 4, "unit": "nM"}, {"measurement": "IC50", "setting": "RON", "result": 9, "unit": "nM"}]}]}
